Like-named read-outs stand apart in the source and are kept apart here.
Experiments:
CAMKK1 = molecular target: T1, CAMKK1 (Homo sapiens, UniProt Q8N5S9); assay: DiscoverX KINOMEscan binding assay at 1 μM, CAMKK1
T1 construct: purchased Eurofins DiscoverX KINOMEscan
Experimental: (§1) Compounds were screened at Eurofins DiscoverX (Freemont, CA) at a single concentration of 1 μM using binding assays as described previously. Briefly, extracts containing DNA-tagged kinases are incubated with immobilized kinase inhibitors and the test compound (at 1 μM). Test compounds that displace the immobilized broad-spectrum inhibitors are detected by quantitative PCR. The results are expressed as the percentage of kinase bound to the bead compared to DMSO control (%control). […] The formula to calculate S10 depicted in Equation (1). (1) S10(1 μM)=number of wild type kinase with % control ≤10/number of wild type kinase tested
(§2) A series of furo [2,3-b]pyridines were generated with modifications off the core at the 3- and 5-positions. They were profiled in the CAMKK2 enzyme assay we have described and utilized previously. Briefly, the enzyme assay measures the ability of the compound to inhibit the transfer of a radiolabeled phosphate from ATP to a CAMKK2-specific peptide. […] 5 was then profiled in the DiscoverX KINOMEscan™ assay panel to provide a view of the overall kinome-wide selectivity (Supplemental S2). This assay platform evaluates compound affinity for a panel of more than 400 wild-type human kinases. The S10 (1 µM), a calculated score that is reflective of broad kinome selectivity, is 0.002 for the probe molecule.

MYO3B = molecular target: T2, MYO3B (Homo sapiens, UniProt Q8WXR4); assay: DiscoverX KINOMEscan binding assay at 1 μM, MYO3B
T2 construct: purchased Eurofins DiscoverX KINOMEscan
T2 sequence (Q8WXR4 1-1341): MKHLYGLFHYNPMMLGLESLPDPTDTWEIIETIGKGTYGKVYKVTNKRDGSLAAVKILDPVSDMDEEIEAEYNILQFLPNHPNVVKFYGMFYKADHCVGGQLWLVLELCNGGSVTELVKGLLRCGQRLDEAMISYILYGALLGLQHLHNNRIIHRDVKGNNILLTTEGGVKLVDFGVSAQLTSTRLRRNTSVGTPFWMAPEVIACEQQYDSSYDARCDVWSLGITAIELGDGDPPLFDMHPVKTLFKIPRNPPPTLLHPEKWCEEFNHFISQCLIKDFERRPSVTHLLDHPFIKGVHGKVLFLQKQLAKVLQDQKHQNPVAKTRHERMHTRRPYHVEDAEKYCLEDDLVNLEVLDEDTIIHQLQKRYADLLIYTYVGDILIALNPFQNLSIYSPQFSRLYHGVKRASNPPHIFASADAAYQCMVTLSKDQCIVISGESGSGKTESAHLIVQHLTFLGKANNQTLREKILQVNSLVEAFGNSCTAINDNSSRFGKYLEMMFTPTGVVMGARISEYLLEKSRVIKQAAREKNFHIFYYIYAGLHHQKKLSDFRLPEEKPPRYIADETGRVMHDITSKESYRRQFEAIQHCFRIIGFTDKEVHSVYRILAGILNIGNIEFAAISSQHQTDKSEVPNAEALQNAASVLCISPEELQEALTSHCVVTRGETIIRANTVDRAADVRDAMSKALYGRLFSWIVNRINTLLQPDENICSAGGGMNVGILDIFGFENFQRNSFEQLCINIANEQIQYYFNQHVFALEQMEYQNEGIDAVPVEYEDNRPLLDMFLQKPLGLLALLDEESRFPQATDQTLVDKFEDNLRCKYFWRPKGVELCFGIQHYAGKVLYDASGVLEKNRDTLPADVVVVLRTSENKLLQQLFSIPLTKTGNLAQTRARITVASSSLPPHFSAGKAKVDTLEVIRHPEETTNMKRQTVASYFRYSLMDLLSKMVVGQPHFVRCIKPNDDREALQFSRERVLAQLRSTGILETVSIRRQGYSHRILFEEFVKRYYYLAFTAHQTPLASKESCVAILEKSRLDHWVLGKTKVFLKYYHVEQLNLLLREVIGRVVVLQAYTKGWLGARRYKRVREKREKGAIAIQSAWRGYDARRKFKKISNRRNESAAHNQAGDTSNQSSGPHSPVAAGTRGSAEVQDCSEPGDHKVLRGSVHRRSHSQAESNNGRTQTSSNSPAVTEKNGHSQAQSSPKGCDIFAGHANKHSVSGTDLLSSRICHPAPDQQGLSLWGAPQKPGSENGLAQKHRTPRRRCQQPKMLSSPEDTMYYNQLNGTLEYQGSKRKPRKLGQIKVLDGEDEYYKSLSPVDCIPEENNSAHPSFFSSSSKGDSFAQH
Experimental: as §1, §2

CAMKK2 = CAMKK2 (Homo sapiens, UniProt Q96RR4); assay: DiscoverX KINOMEscan binding assay at 1 μM, CAMKK2; design: purchased Eurofins DiscoverX KINOMEscan
Sequence of CAMKK2 (Q96RR4 whole entry): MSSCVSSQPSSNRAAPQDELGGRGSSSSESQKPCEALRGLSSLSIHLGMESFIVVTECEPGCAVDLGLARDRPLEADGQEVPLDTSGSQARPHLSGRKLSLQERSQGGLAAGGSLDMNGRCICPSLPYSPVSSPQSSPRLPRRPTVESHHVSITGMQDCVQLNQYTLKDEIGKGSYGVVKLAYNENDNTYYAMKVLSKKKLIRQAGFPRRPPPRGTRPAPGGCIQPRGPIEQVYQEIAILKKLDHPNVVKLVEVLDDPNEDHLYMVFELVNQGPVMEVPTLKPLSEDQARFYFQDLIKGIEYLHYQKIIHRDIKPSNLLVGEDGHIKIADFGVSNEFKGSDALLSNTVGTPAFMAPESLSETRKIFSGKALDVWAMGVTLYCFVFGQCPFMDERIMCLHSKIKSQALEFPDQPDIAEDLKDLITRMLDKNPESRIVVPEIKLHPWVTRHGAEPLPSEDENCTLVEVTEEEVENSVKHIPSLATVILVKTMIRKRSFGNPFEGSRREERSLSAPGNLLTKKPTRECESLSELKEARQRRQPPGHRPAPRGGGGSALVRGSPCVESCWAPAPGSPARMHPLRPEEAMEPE
Experimental: as §1, §2

PIM2 = PIM2 (Homo sapiens, UniProt Q9P1W9); assay: DiscoverX KINOMEscan binding assay at 1 μM, PIM2; design: purchased Eurofins DiscoverX KINOMEscan
Sequence of PIM2 (Q9P1W9 whole entry): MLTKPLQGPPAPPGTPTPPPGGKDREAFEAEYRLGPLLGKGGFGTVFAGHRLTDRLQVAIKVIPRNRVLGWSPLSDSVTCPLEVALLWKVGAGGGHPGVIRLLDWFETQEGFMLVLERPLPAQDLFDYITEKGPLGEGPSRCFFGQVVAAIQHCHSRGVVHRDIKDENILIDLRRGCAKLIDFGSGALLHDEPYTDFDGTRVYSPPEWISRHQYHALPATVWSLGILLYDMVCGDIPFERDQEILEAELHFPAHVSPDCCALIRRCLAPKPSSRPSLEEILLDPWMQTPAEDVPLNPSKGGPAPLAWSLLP
Experimental: as §1
(§3) In the DiscoverX KinomeSCAN® assay panel, when screened at a concentration of 1 µM, compound 7 bound to very few kinases with S10 (1 µM) = 0.005. The only two kinases with significant binding for compound 7 were PIP4K2C with a PoC = 7.2 and PIM2 with PoC = 7.4. PIP4K2C is a lipid kinase that has very little catalytic activity, and there is no commercially available kinase activity assay, so this potential off-target activity for the negative control remains uncharacterized.

PIP4K2C = molecular target: T3, PIP4K2C (Homo sapiens, UniProt Q8TBX8); assay: DiscoverX KINOMEscan binding assay at 1 μM, PIP4K2C
T3 construct: purchased Eurofins DiscoverX KINOMEscan
T3 sequence (Q8TBX8 1-421): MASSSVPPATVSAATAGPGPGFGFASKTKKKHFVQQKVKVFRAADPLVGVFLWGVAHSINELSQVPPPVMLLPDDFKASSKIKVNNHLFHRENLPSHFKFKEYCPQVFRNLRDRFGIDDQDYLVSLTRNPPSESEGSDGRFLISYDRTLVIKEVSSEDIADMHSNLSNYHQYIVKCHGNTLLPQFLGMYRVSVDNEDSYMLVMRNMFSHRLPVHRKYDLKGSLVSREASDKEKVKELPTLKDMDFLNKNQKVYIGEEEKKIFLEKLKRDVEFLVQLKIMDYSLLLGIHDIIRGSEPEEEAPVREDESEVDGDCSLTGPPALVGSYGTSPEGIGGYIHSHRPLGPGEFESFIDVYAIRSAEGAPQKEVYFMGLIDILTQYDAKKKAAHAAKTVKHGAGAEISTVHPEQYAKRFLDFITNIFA
Experimental: as §1, §3

[1] = percentage of control, compound at 1 μM, read-out: PoC (1 μM) CAMKK1
[2] = percentage of control, compound at 1 μM, read-out: PoC (1 μM) CAMKK2

T1 sequence (Q8N5S9 whole entry): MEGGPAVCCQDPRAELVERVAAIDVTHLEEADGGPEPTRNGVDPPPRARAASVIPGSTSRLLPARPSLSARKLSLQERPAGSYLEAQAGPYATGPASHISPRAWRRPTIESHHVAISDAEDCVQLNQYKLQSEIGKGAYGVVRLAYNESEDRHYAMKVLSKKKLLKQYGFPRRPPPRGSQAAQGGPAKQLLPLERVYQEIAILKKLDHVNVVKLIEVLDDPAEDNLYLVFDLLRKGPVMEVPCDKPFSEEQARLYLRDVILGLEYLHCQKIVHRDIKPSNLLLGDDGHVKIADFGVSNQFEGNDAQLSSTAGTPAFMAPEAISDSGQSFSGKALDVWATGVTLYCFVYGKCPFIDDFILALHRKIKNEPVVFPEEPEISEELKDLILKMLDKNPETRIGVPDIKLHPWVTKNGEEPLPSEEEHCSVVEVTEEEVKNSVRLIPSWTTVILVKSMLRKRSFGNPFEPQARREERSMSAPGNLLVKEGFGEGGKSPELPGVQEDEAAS

**Q.** `Cc1cccc(-c2cnc3occ(-c4ccc(C(=O)O)c(C5CCCC5)c4)c3c2)c1` [Compound 5] was tested. Which remaining binding at 1 µM (CAMKK1; [1]) did it give?
**A.** 12%

**Q.** What about the remaining binding at 1 µM (MYO3B; percentage of control, compound at 1 μM, read-out: PoC (1 μM) MYO3B) of the same molecule?
**A.** 45%

**Q.** And the remaining binding at 1 µM (CAMKK2; [2])?
**A.** 5.4%

**Q.** What does the source list for `O=C(O)c1ccc(-c2coc3ncc(-c4ccccc4)cc23)cc1Cl` [Compound 7]?
**A.** remaining binding at 1 µM (CAMKK1; [1]): 91%; remaining binding at 1 µM (PIM2; percentage of control, compound at 1 μM, read-out: PoC (1 μM) PIM2): 7.4%; remaining binding at 1 µM (PIP4K2C; percentage of control, compound at 1 μM, read-out: PoC (1 μM) PIP4K2C): 7.2%; remaining binding at 1 µM (CAMKK2; [2]): 84%

**Q.** What does the source list for `Cc1cccc(-c2cnc3occ(-c4ccc(C(=O)O)c(C5CCCC5)c4)c3c2)c1` [SGC-CAMKK2-1 (YL-36)]?
**A.** remaining binding at 1 µM (CAMKK1; 1000 nM, Entrez CAMKK1, read-out: Percent Control): 15%; remaining binding at 1 µM (MYO3B; 1000 nM, Entrez MYO3B, read-out: Percent Control): 100%; remaining binding at 1 µM (PIM2; 1000 nM, Entrez PIM2, read-out: Percent Control): 96%; remaining binding at 1 µM (PIP4K2C; 1000 nM, DiscoveRx PIP5K2C, Entrez PIP4K2C, read-out: Percent Control): 61%; remaining binding at 1 µM (CAMKK2; 1000 nM, Entrez CAMKK2, read-out: Percent Control): 7.5%

**Q.** With `O=C(O)c1ccc(-c2coc3ncc(-c4ccccc4)cc23)cc1Cl` [SGC-CAMKK2-1N (UNC-YL-83)] as the molecule, how does the remaining binding at 1 µM (CAMKK1; CAMKK1, 1000 nM, read-out: Percent Control) read?
**A.** 91%

**Q.** And the remaining binding at 1 µM (MYO3B; Compound Concentration 1000 nM, read-out: Percent Control)?
**A.** 100%

**Q.** And the remaining binding at 1 µM (PIM2; PIM2, 1000 nM, read-out: Percent Control)?
**A.** 7.4%

**Q.** And the remaining binding at 1 µM (PIP4K2C; PIP5K2C (PIP4K2C), 1000 nM, read-out: Percent Control)?
**A.** 7.2%

**Q.** And the remaining binding at 1 µM (CAMKK2; CAMKK2, 1000 nM, read-out: Percent Control)?
**A.** 84%

— publication PMC9856672, “SGC-CAMKK2-1: A Chemical Probe for CAMKK2” (Cells, 2023)
